Numbers after ± are expanded uncertainties.
Experiment: xn = mol fraction of the nth substance listed
Conditions: 101.3 kPa, Liquid; for viscosity: Capillary tube (Ostwald / Ubbelohde) method

OCCCCO [1,4-butanediol] + O
Conditions | mass density, 298.15 K [kg/m3] | mass density, 308.15 K [kg/m3] | mass density, 318.15 K [kg/m3] | speed of sound, 298.15 K [m/s] | speed of sound, 308.15 K [m/s] | speed of sound, 318.15 K [m/s] | viscosity, 298.15 K [mPa·s] | viscosity, 308.15 K [mPa·s] | viscosity, 318.15 K [mPa·s]
x2 = 0.055 | 1013.64 ± 0.38 | 1007.37 ± 0.36 | 1001.62 ± 0.35 | 1609 ± 6.6 | 1591 ± 6.5 | 1574.6 ± 6.4 | 68.26 ± 0.4 | 42.31 ± 0.2 | 27.43 ± 0.14
x2 = 0.1534 | 1015.1 ± 0.37 | 1008.7 ± 0.35 | 1002.81 ± 0.34 | 1623.6 ± 6.6 | 1604.6 ± 6.5 | 1586.7 ± 6.5 | 59.73 ± 0.23 | 37.48 ± 0.17 | 24.34 ± 0.12
x2 = 0.2472 | 1016.59 ± 0.36 | 1010.06 ± 0.35 | 1004.04 ± 0.33 | 1637.5 ± 6.6 | 1617.7 ± 6.6 | 1598.8 ± 6.5 | 51.48 ± 0.12 | 32.83 ± 0.15 | 21.39 ± 0.11
x2 = 0.3542 | 1018.46 ± 0.36 | 1011.78 ± 0.34 | 1005.59 ± 0.32 | 1658.6 ± 6.7 | 1637.1 ± 6.6 | 1615.4 ± 6.6 | 42.26 ± 0.19 | 27.6 ± 0.13 | 18.04 ± 0.1
x2 = 0.4531 | 1020.08 ± 0.35 | 1013.29 ± 0.33 | 1006.95 ± 0.31 | 1678.2 ± 6.8 | 1655.1 ± 6.7 | 1632.8 ± 6.6 | 33.95 ± 0.15 | 22.83 ± 0.11 | 15 ± 0.091
x2 = 0.498 | 1020.71 ± 0.35 | 1013.88 ± 0.33 | 1007.49 ± 0.31 | 1686 ± 6.8 | 1662.5 ± 6.7 | – | 30.26 ± 0.14 | 20.69 ± 0.11 | 13.63 ± 0.087
x2 = 0.5578 | 1021.37 ± 0.35 | 1014.52 ± 0.33 | – | 1695.3 ± 6.8 | 1671 ± 6.7 | – | 25.51 ± 0.12 | 17.9 ± 0.098 | 11.84 ± 0.082
x2 = 0.6513 | 1021.78 ± 0.34 | 1014.99 ± 0.32 | – | 1707.7 ± 6.8 | 1684.1 ± 6.8 | – | 18.65 ± 0.099 | 13.72 ± 0.086 | 9.148 ± 0.075
x2 = 0.7496 | 1020.65 ± 0.33 | 1014.15 ± 0.31 | – | 1715.9 ± 6.9 | 1693 ± 6.8 | – | 12.57 ± 0.083 | 9.702 ± 0.076 | 6.533 ± 0.07
x2 = 0.8475 | 1016.21 ± 0.31 | 1010.43 ± 0.29 | – | 1702.6 ± 6.8 | 1685.5 ± 6.8 | – | 7.83 ± 0.072 | 6.132 ± 0.07 | 4.179 ± 0.067
x2 = 0.9081 | 1010.66 ± 0.29 | 1005.69 ± 0.27 | – | 1663.1 ± 6.7 | 1655 ± 6.7 | – | 5.31 ± 0.068 | 4.059 ± 0.066 | 2.8 ± 0.065
x2 = 0.9152 | 1009.83 ± 0.29 | 1004.98 ± 0.27 | – | 1655.8 ± 6.7 | 1648.7 ± 6.7 | – | 5.014 ± 0.068 | 3.816 ± 0.066 | 2.639 ± 0.065
x2 = 0.9253 | 1008.58 ± 0.28 | 1003.91 ± 0.27 | – | 1644.1 ± 6.6 | 1639.7 ± 6.6 | – | 4.588 ± 0.067 | 3.469 ± 0.066 | 2.408 ± 0.064
x2 = 0.9355 | 1007.24 ± 0.28 | 1002.76 ± 0.26 | – | 1630.7 ± 6.6 | 1628.5 ± 6.6 | – | 4.148 ± 0.067 | 3.115 ± 0.065 | 2.173 ± 0.064
x2 = 0.9543 | 1004.56 ± 0.27 | 1000.47 ± 0.26 | – | 1601.1 ± 6.5 | 1604.2 ± 6.5 | – | 3.3 ± 0.065 | 2.45 ± 0.064 | 1.732 ± 0.064
x2 = 0.955 | 1004.46 ± 0.27 | 1000.37 ± 0.26 | – | 1599.8 ± 6.5 | 1603 ± 6.5 | – | 3.267 ± 0.065 | 2.425 ± 0.064 | 1.716 ± 0.064
x2 = 0.9597 | 1003.74 ± 0.27 | 999.76 ± 0.26 | – | 1591.3 ± 6.5 | 1595.9 ± 6.5 | – | 3.045 ± 0.065 | 2.255 ± 0.064 | 1.604 ± 0.064
x2 = 0.9699 | 1002.14 ± 0.26 | 998.39 ± 0.26 | – | 1571.1 ± 6.4 | 1579.2 ± 6.4 | – | 2.544 ± 0.065 | 1.881 ± 0.064 | 1.357 ± 0.063
x2 = 0.9804 | 1000.42 ± 0.26 | 996.91 ± 0.26 | – | 1547.9 ± 6.3 | 1560.2 ± 6.4 | – | 2.001 ± 0.064 | 1.487 ± 0.064 | 1.098 ± 0.063
x2 = 0.9901 | 998.77 ± 0.26 | 995.5 ± 0.27 | – | 1523.9 ± 6.3 | 1540.2 ± 6.3 | – | 1.468 ± 0.064 | 1.112 ± 0.064 | 0.853 ± 0.063
x2 = 0.9924 | 998.37 ± 0.26 | 995.16 ± 0.27 | – | 1517.8 ± 6.3 | 1535.5 ± 6.3 | – | 1.337 ± 0.064 | 1.022 ± 0.063 | 0.794 ± 0.063
x2 = 0.9955 | 997.83 ± 0.26 | 994.7 ± 0.27 | – | 1509.5 ± 6.2 | 1528.5 ± 6.3 | – | 1.158 ± 0.064 | 0.899 ± 0.063 | 0.714 ± 0.063
